Reference: publication PMC3407958 (Pharmacotherapy, 2010)
Like-named read-outs stand apart in the source and are kept apart here. Marks after values point to notes of the source that are not given here.

Key:
[1] = tested on: intestinal and hepatic CYP3A; settings: cited from earlier work
CYP3A = assay type: in vivo, human (healthy volunteers); settings: for Cl/F / AUC(0-inf): geometric mean (90% CI); for AUC(0-inf): AUC0-∞, midazolam 8 mg single oral dose
[2] = three weeks of garlic caplet supplementation; cited from earlier work
[3] = human, in vivo
[4] = human, in vivo; remark: listed apart in the source
clinical = settings: human, in vivo
[5] = Post-Echinacea/Pre-Echinacea, GMR (90% CI)
[6] = Post-Echinacea/Pre-Echinacea, GMR (90% CI), listed as Midazolam
[7] = midazolam 8 mg oral, 28 days of echinacea, P > 0.05

In the case of `Cc1ncc2n1-c1ccc(Cl)cc1C(c1ccccc1F)=NC2` [midazolam], the “Increase in intestinal availability of midazolam” value ([1]; after E purpurea 1600 mg total daily dose for 8 days) is given as 85%, the “Increase in oral availability of midazolam” value ([1]; after echinacea 400 mg 4 times daily for 8 days, P = 0.028) is given as ~43% and the Cl/F (CYP3A; Post-Echinacea (28 days), midazolam 8 mg oral) is given as 77 (55–98) mL/hr. The Tmax (CYP3A; Post-Echinacea (28 days), midazolam 8 mg oral, median (range)) was 0.5 (0.5–1.5) ^c hr, the “AUC0-∞ geometric mean ratio” value (CYP3A; [5]) was 0.73 (0.61, 0.85) and the “Cl/F geometric mean ratio” value (CYP3A; [5]) was 1.37 (1.10, 1.63). The “Cmax geometric mean ratio” value (CYP3A; [5]) was 0.77 (0.58–0.96), the “T ½ geometric mean ratio” value (CYP3A; [5]) was 0.55 (0.40, 0.70) and the “AUC0-∞ geometric mean ratio” value (CYP3A; [6]) was 0.73 (0.61–0.85). For the same molecule, the “Cl/F geometric mean ratio” value (CYP3A; [6]) was 1.37 (1.10–1.63), the “T ½ geometric mean ratio” value (CYP3A; [6]) was 0.55 (0.40–0.70) and the Cl/F (CYP3A; Pre-Echinacea, midazolam 8 mg oral) was 56 (46–66) mL/hr. The “Change in midazolam exposure after E purpurea” value (CYP3A; after 28 days of E purpurea, P = 0.008) was −27%, the “Increase in midazolam apparent oral clearance after E purpurea” value (CYP3A; after 28 days of E purpurea, P = 0.02) was 37% and the “Reduction of midazolam half-life after E purpurea” value (CYP3A; after 28 days of E purpurea, P = 0.051) was 45%. The Tmax (CYP3A; human, plasma, po, 8 mg) was 0.5 h, the AUC(0-inf) (CYP3A; human, plasma, po, 8 mg, Post-Echinacea (28 days, 500 mg three times daily)) was 104 ng·h/mL and the AUC(0-inf) (CYP3A; human, plasma, po, 8 mg, Pre-Echinacea) was 143 ng·h/mL. For the same molecule, the “Change of Cmax after echinacea administration” value (CYP3A; [7]) was “unchanged” and the “Change of Tmax after echinacea administration” value (CYP3A; [7]) was “unchanged”.
For `CC(C)(C)NC(=O)[C@@H]1C[C@@H]2CCCC[C@@H]2CN1C[C@@H](O)[C@H](Cc1ccccc1)NC(=O)[C@H](CC(N)=O)NC(=O)c1ccc2ccccc2n1` [saquinavir], the “Decrease in AUC of saquinavir” value [2] is given as 51%.
For `CC(C)c1nc(CN(C)C(=O)N[C@H](C(=O)N[C@@H](Cc2ccccc2)C[C@H](O)[C@H](Cc2ccccc2)NC(=O)OCc2cncs2)C(C)C)cs1` [ritonavir], the “T ½” value [3] was 5.34 (4.46–6.22) hr and the Tmax [3] was 1.8 (0–4.0) ^c hr.
With `Cc1cccc(C)c1OCC(=O)N[C@@H](Cc1ccccc1)[C@@H](O)C[C@H](Cc1ccccc1)NC(=O)[C@H](C(C)C)N1CCCNC1=O` [lopinavir] the Tmax [4] was 2 h, the “T ½” value [3] was 9.5 (7.4–11.6) hr and the Tmax (clinical) was 2 h.
